According to PubChem BioAssay AID732 (Emory University Molecular Libraries Screening Center, 2007):
Values joined by “and” are separate entries in the source; they are usually repeats but may differ in a detail not shown here. Equal values may be shown once. Active and inactive are the calls of the source. How the calls were made is not given here.

Test system: in vivo angiogenesis, blood vessel count
Experiment: reduction of blood vessel formation in vivo – HTS, in vivo study (AID 732);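 further: zebrafish embryos dosed at one day post fertilization; 0% = reference inhibitor and 100% = plate mean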
Settings: stronger effect = lower value;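 tested at 30 µM in the well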

Q: Which vessel count % control does the source give for `CC(=O)N[C@@H](CS)C(=O)O` here?
A: 96.5% (inactive)

Q: Which vessel count % control does the source give for `CC(N)=NCCCC[C@@H](N)C(=O)O` here?
A: 86.6% (inactive)

Q: Which vessel count % control does the source give for `CCCNCC(O)COc1ccccc1C(=O)CCc1ccccc1` (stereo not given) here?
A: 102% (inactive)

Q: `c1ccc2c(c1)OCC(C1=NCCN1)O2` (stereo not given) was tested. Which vessel count % control did it give?
A: 146% (inactive)

Q: Which vessel count % control does the source give for `COc1ccccc1N1CCN(CCN(C(=O)c2ccc(F)cc2)c2ccccn2)CC1` here?
A: 103% (inactive)

Q: With `CCN1CCCC1CNC(=O)c1cc(S(N)(=O)=O)ccc1OC` (stereo not given) as the molecule, how does the vessel count % control read?
A: 112% (inactive)

Q: How did the vessel count % control turn out when `O=P1(N(CCCl)CCCl)NCCCO1` (stereo not given) was run?
A: 105% (inactive)

Q: How did the vessel count % control turn out when `CC(=O)[C@H]1CC[C@H]2[C@@H]3CCC4=CC(=O)CC[C@]4(C)[C@H]3CC[C@]12C` was run?
A: 102% (inactive)

Q: How did the vessel count % control turn out when `CC(C)[C@@H]1NC(=O)[C@H](CCCCN)NC(=O)[C@@H](Cc2c[nH]c3ccccc23)NC(=O)[C@H](Cc2ccc(O)cc2)NC(=O)[C@H](C)N(C)C(=O)[C@H](Cc2ccccc2)NC1=O` was run?
A: 101% (inactive)

Q: How did the vessel count % control turn out when `CNCCC=C1c2ccccc2CCc2ccccc21` was run?
A: 103% (inactive)

Q: Which vessel count % control does the source give for `NCCNC(=O)c1ncsc1-c1cccc(F)c1` here?
A: 102% (inactive)

Q: How did the vessel count % control turn out when `CC(C)NCC(O)COc1ccc(CC(N)=O)cc1` (stereo not given) was run?
A: 102% (inactive)

Q: With `O=C(O)C1CCCNC1` (stereo not given) as the molecule, how does the vessel count % control read?
A: 120% (inactive)

Q: For `O=C1C(c2c(O)[nH]c3ccc([N+](=O)[O-])cc23)=Nc2ccc(Br)cc21`, which vessel count % control is on record?
A: 101% (inactive)

Q: With `COc1ccc2[nH]cc(CCN(C)C)c2c1` as the molecule, how does the vessel count % control read?
A: 83.1% (inactive)

Q: `Nc1ncnc2c1ncn2C1CCCO1` (stereo not given) was tested. Which vessel count % control did it give?
A: 101% (inactive)

Q: `Cc1nc2n(c(=O)c1CCN1CCC(c3noc4cc(F)ccc34)CC1)CCCC2` was tested. Which vessel count % control did it give?
A: 104% (inactive)

Q: `CCCCCCCCCCCCC/C=C/C(O)C(N)CO` (stereo not given) was tested. Which vessel count % control did it give?
A: 112% (inactive)

Q: How did the vessel count % control turn out when `Clc1cc(I)cc(Cl)c1NC1=NCCN1` was run?
A: 80.6% (inactive)

Q: How did the vessel count % control turn out when `COc1cc(C(O)CO)ccc1OS(=O)(=O)O` (stereo not given) was run?
A: 93.6% (inactive)

Q: Which vessel count % control does the source give for `N#C/C(=C\c1c[nH]c2ccccc12)C(=O)c1ccc(O)c(O)c1` here?
A: 102% (inactive)

Q: How did the vessel count % control turn out when `C1COC(NC(C2CC2)C2CC2)=N1` was run?
A: 100% (inactive)

Q: With `OC[C@H]1O[C@@H](n2cnc3c(NCCc4ccccc4)ncnc32)C(O)[C@H]1O` (stereo not given in full) as the molecule, how does the vessel count % control read?
A: 79.4% (inactive)

Q: With `O=C(O)c1cc(=O)c2ccc(Cl)cc2[nH]1` as the molecule, how does the vessel count % control read?
A: 110% (inactive)

Q: How did the vessel count % control turn out when `NCCS(=O)O` was run?
A: 107% (inactive)

Q: For `CCCCCCCCCCCCCCCCCCNC(=O)OCC(COP(=O)([O-])OCC[n+]1ccsc1)OC` (stereo not given), which vessel count % control is on record?
A: 92% (inactive)

Q: `Cc1cn[nH]c1` was tested. Which vessel count % control did it give?
A: 87.3% (inactive)

Q: How did the vessel count % control turn out when `CC(=O)N[C@@H](Cc1c[nH]c2ccccc12)C(=O)OCc1cc(C(F)(F)F)cc(C(F)(F)F)c1` was run?
A: 70.4% (inactive)

Q: Which vessel count % control does the source give for `O=C1O/C(=C/Br)CCC1c1cccc2ccccc12` (stereo not given) here?
A: 87.4% (inactive)

Q: With `Cn1c(=O)c2[nH]cnc2n(C)c1=O` as the molecule, how does the vessel count % control read?
A: 105% (inactive)

Q: `CC(O)C(C)OC(=O)[C@@H]1C[C@@H]2c3cccc4c3c(cn4C(C)C)C[C@H]2N(C)C1` (stereo not given in full) was tested. Which vessel count % control did it give?
A: 90.9% (inactive)

Q: `OC1(c2ccc(Cl)cc2)CCN(Cc2c[nH]c3ccccc23)CC1` was tested. Which vessel count % control did it give?
A: 96.6% (inactive)

Q: For `CC1CNCCN1S(=O)(=O)c1cccc2cnccc12` (stereo not given), which vessel count % control is on record?
A: 97.5% (inactive) and 98.4% (inactive)

Q: `Nc1nc2[nH]c(=O)cnc2c(=O)[nH]1` was tested. Which vessel count % control did it give?
A: 140% (inactive)

Q: `N[C@H](CCC(=O)NCS(=O)(=O)O)C(=O)O` was tested. Which vessel count % control did it give?
A: 102% (inactive)

Q: How did the vessel count % control turn out when `NC(=O)c1ncn([C@@H]2O[C@H](CO)[C@@H](O)[C@H]2O)c1O` was run?
A: 94.8% (inactive)

Q: With `CC(N)[C@H](O)c1ccc(O)c(O)c1` (stereo not given in full) as the molecule, how does the vessel count % control read?
A: 106% (inactive)

Q: Which vessel count % control does the source give for `NCCCNCCCCNCCCN` here?
A: 115% (inactive)

Q: For `COc1ccc(C(=O)NCc2cccnc2)cc1C(=O)NCc1cccnc1`, which vessel count % control is on record?
A: 109% (inactive)

Q: `COc1cc2c(CCNC(C)=O)c[nH]c2cc1O` was tested. Which vessel count % control did it give?
A: 105% (inactive)

Q: `O=c1[nH]oc2c1CCNC2` was tested. Which vessel count % control did it give?
A: 103% (inactive)

Q: How did the vessel count % control turn out when `COc1ccc2c(c1)/C(=C/c1cnc[nH]1)C(=O)N2` was run?
A: 73.2% (inactive)

Q: Which vessel count % control does the source give for `C=CCN1CCc2c(cc(O)c(O)c2Br)[C@@H](c2ccccc2)C1` here?
A: 85% (inactive)

Q: Which vessel count % control does the source give for `NC(=O)CI` here?
A: 108% (inactive)

Q: `CSc1nc(N)c2ncn([C@@H]3O[C@H](COP(=O)(O)OP(=O)(O)O)[C@H](O)C3O)c2n1` (stereo not given in full) was tested. Which vessel count % control did it give?
A: 83.5% (inactive)

Q: For `O=c1[nH]c2cc(Cl)ccc2c(O)c1-c1ccc(Oc2ccccc2)cc1`, which vessel count % control is on record?
A: 66.8% (inactive)

Q: For `CCOC(=O)C1=C[C@]2(CC)CCCN3CCc4c(n1c1ccccc41)[C@@H]32`, which vessel count % control is on record?
A: 0% (inactive)

Q: With `C[C@H](O)C(=O)C1=Nc2c(nc(N)[nH]c2=O)NC1` as the molecule, how does the vessel count % control read?
A: 117% (inactive)

Q: `CN[C@@H]1C[C@@H](c2ccc(Cl)c(Cl)c2)c2ccccc21` was tested. Which vessel count % control did it give?
A: 0% (inactive)

Q: Which vessel count % control does the source give for `CCCCC[C@H](CC(=O)NO)C(=O)N[C@H](C(=O)N1CCC[C@H]1CO)C(C)C` here?
A: 103% (inactive)
